Measured values taken from ChEMBL document CHEMBL1201862, “PubChem BioAssay data set” (2004).
Active and inactive are the calls of the source.

Legend:
[1] = target: T1, Cannabinoid receptor 2 (Homo sapiens, UniProt P34972); assay: SAR analysis of antagonists of the Cannabinoid Receptor 2 using an Image-Based Assay - Set 2. [Related pubchem assays (depositor defined):AID1961, AID1965]; assay type: functional
[2] = target: G-protein coupled receptor 55 (Homo sapiens, UniProt Q9Y2T6); assay: SAR analysis of selective Agonists of GPR55 using an Image-Based Assay - Set 2. [Related pubchem assays (depositor defined):AID1961, AID1965]; assay type: functional
[3] = target: T1, Cannabinoid receptor 2; assay: SAR analysis of agonists of the Cannabinoid Receptor 2 using an Image-Based Assay - Set 2. [Related pubchem assays (depositor defined):AID1961, AID1965]; assay type: functional
[4] = target: T2, G-protein coupled receptor 35 (Homo sapiens, UniProt Q9HC97); assay: SAR analysis of Agonists of the GPR35 Receptor using an Image-Based Assay - Set 3. [Related pubchem assays (depositor defined):AID1961, AID1965]; assay type: functional
T2 sequence (Q9HC97 whole entry): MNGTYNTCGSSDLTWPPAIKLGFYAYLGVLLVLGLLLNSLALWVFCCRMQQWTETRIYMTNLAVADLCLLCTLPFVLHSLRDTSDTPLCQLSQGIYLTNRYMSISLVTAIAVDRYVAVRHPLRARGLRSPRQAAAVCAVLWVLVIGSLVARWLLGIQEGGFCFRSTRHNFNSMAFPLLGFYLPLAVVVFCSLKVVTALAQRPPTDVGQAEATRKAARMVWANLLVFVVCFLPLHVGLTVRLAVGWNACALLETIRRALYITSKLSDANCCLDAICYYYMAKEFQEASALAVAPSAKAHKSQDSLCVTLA

[5] = target: T3, Cannabinoid receptor 1 (Homo sapiens, UniProt P21554); assay: SAR analysis of antagonists of the Cannabinoid Receptor 1 using an Image-Based Assay - Set 3. [Related pubchem assays (depositor defined):AID1961, AID1965]; assay type: functional
T3 sequence (P21554 whole entry): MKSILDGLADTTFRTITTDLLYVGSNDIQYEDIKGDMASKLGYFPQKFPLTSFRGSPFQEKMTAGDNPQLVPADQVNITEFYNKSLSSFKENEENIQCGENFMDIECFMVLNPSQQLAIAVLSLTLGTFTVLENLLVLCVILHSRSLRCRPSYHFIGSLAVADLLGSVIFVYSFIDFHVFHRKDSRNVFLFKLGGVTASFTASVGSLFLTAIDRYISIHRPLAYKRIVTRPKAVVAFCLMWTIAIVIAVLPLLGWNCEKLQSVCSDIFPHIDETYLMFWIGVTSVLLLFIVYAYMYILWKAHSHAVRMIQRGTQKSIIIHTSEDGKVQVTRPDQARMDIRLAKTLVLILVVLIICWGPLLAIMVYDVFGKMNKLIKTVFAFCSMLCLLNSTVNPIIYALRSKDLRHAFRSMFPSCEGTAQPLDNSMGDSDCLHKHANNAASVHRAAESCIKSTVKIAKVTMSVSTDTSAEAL

[6] = target: T3, Cannabinoid receptor 1; assay: SAR analysis of agonists of the Cannabinoid Receptor 1 using an Image-Based Assay - Set 3. [Related pubchem assays (depositor defined):AID1961, AID1965]; assay type: functional
[7] = target: T2, G-protein coupled receptor 35; assay: SAR analysis of Antagonists of the GPR35 Receptor using an Image-Based Assay - Set 4. [Related pubchem assays (depositor defined):[…]]; assay type: functional
[8] = target: T4, Sphingosine 1-phosphate receptor 4 (Homo sapiens, UniProt O95977); assay: Late-stage fluorescence dose response cell-based assay to identify agonists of the Sphingosine 1-Phosphate Receptor 4 (S1P4): purchased compounds EC50. [Related pubchem assays (depositor defined):AID1509, AID1523, AID1563, AID1686, AID1701, AID1801]; assay type: functional
T4 sequence (O95977 whole entry): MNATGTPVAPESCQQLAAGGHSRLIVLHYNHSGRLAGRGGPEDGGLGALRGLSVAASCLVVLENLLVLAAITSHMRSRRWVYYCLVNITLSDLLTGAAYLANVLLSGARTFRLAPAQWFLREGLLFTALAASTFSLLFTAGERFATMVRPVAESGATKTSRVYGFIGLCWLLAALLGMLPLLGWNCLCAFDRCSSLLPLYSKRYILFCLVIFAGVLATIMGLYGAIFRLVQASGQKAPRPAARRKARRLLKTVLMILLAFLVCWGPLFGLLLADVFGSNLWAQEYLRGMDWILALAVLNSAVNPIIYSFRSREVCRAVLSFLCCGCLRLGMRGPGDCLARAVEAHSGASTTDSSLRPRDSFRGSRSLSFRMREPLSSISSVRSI

[9] = target: T5, Dual specificity protein phosphatase 3 (Homo sapiens, UniProt P51452); assay: VHR1 phosphatase inhibitors, primary screen, biochemical, absorbance, uHTS (AID 1654)
T5 sequence (P51452 whole entry): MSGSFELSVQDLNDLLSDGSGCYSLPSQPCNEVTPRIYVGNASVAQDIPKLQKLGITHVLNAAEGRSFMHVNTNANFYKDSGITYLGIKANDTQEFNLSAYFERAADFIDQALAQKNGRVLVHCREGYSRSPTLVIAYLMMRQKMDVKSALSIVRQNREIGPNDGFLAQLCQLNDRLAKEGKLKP

[10] = target: T5, Dual specificity protein phosphatase 3; assay: VHR1 phosphatase inhibitors, biochemical (AID 1878)
[11] = target: Dual specificity protein phosphatase 6 (Rattus norvegicus, UniProt Q64346); assay: MKP-3 phosphatase inhibitors, primary screen, biochemical, rat enzyme, in vitro (AID 425)
Dual specificity protein phosphatase 6, sequence (Q64346 whole entry): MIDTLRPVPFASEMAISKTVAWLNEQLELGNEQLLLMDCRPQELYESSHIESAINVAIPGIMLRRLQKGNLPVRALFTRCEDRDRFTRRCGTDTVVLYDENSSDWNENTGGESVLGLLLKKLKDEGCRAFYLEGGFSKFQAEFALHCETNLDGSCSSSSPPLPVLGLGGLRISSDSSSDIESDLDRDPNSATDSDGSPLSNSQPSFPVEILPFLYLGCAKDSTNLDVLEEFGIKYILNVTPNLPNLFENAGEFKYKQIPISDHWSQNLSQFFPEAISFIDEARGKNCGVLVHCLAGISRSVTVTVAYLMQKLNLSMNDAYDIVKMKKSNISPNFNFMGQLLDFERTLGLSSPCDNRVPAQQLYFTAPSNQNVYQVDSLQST

[12] = target: Sphingosine 1-phosphate receptor 1 (Homo sapiens, UniProt P21453); assay: Fluorescence-based counterscreen assay for S1P4 agonists: Cell-based dose response high throughput screening assay to identify agonists of the Sphingosine 1-Phosphate Receptor 1 (S1P1). [Related pubchem assays (depositor defined):AID1509, AID1523, AID1801, AID463107, AID463118, AID463119, AID463122, AID463123, AID463129, AID463225, AID504400, AID504460]; assay type: functional
Sphingosine 1-phosphate receptor 1, sequence (P21453 whole entry): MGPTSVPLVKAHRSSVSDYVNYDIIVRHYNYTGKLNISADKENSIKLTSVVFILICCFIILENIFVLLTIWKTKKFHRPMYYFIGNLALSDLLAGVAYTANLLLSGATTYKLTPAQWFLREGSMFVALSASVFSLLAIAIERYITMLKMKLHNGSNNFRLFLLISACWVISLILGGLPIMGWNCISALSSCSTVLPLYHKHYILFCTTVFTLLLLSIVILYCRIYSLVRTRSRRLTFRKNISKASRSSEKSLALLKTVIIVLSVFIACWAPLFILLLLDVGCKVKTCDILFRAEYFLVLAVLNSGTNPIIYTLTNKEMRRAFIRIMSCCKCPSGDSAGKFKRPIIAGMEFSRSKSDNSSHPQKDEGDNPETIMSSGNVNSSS

[13] = target: T4, Sphingosine 1-phosphate receptor 4; assay: Fluorescence dose response cell-based high throughput screening assay for agonists of the Sphingosine 1-Phosphate Receptor 4 (S1P4). [Related pubchem assays: 1509 (Primary screen.), 1523 (Confirmation screen in triplicates.)]; assay type: functional
[14] = target: Sphingosine 1-phosphate receptor 5 (Homo sapiens, UniProt Q9H228); assay: Late stage counterscreen assay for S1P4 antagonists: Fluorescence dose response cell-based screening assay for antagonists of the Sphingosine 1-Phosphate Receptor 5 (S1P5). [Related pubchem assays (depositor defined):AID1510, AID1524, AID1692, AID1853, AID2332, AID489009, AID489017]; assay type: functional
[15] = target: Sphingosine 1-phosphate receptor 3 (Homo sapiens, UniProt Q99500); assay: Late stage counterscreen assay for S1P4 antagonists: Fluorescence dose response cell-based screening assay for antagonists of the Sphingosine 1-Phosphate Receptor 3 (S1P3). [Related pubchem assays (depositor defined):AID1510, AID1524, AID1692, AID1853, AID2332, AID489009, AID489017]; assay type: functional
Sphingosine 1-phosphate receptor 3, sequence (Q99500 whole entry): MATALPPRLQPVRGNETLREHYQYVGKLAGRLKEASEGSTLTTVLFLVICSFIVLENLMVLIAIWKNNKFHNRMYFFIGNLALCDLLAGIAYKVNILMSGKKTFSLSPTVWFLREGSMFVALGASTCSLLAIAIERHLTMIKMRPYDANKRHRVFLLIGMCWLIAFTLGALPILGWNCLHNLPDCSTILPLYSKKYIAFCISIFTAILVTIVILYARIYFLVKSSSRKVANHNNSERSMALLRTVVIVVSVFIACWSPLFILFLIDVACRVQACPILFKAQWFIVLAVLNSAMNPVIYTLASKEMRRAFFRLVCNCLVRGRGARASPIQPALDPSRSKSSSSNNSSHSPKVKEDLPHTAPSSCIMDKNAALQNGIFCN

[16] = target: Sphingosine 1-phosphate receptor 2 (Homo sapiens, UniProt O95136); assay: Late stage counterscreen assay for S1P4 antagonists: Fluorescence dose response cell-based screening assay for antagonists of the Sphingosine 1-Phosphate Receptor 2 (S1P2). [Related pubchem assays (depositor defined):AID1510, AID1524, AID1692, AID1853, AID2332, AID489009, AID489017]; assay type: functional
[17] = target: T6, E3 ubiquitin-protein ligase XIAP (Homo sapiens, UniProt P98170); assay: Counter Screen using XIAP-Bir3 for Chemical Antagonists of Bir1/2 domains of IAP-family anti-apoptotic proteins. [Related pubchem assays (depositor defined):AID1018, AID1449, AID1514, AID1638, AID1749, AID1750, AID488957, AID488963]
T6 sequence (P98170 whole entry): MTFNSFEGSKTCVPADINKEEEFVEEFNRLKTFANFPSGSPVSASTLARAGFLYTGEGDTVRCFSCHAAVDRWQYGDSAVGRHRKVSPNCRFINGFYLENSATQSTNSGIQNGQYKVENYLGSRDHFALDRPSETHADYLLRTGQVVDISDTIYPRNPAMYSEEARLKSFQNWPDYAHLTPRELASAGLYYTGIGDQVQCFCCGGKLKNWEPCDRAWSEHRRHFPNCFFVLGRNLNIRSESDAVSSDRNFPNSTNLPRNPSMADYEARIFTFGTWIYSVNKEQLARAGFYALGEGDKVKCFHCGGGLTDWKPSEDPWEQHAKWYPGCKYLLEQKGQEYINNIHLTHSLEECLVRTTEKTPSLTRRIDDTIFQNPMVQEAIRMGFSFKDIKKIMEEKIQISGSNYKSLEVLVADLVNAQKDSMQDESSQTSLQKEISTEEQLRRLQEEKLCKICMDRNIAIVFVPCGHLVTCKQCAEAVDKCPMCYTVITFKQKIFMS

[18] = target: T6, E3 ubiquitin-protein ligase XIAP; assay: XIAP antagonists, biochemical, IAP family, fluorescence polarization (AID 1018); assay type: functional
[19] = target: Coagulation factor XII (Homo sapiens, UniProt P00748); assay type: functional;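 also: activated factor XIIa alpha cleaving a fluorogenic AMC peptide substrate; inhibitor potency from loss of enzyme activity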
[20] = target: Signal transducer and activator of transcription 3 (Homo sapiens, UniProt P40763); assay: STAT3 inhibitors, late-stage profile, late-stage follow-up, cell-based, STAT1 panel, qPCR, cytotoxicity, panel member STAT3 Inhibition (AID 2078)
[21] = target: Signal transducer and activator of transcription 1-alpha/beta (Homo sapiens, UniProt P42224); assay: STAT3 inhibitors, late-stage profile, late-stage follow-up, cell-based, STAT1 panel, qPCR, cytotoxicity, panel member STAT1 Inhibition (AID 2078)
[22] = target: Peroxisome proliferator-activated receptor gamma (Homo sapiens, UniProt P37231); assay: PPARg partial agonists, dose response, cell-based, luminescence, assay provider (AID 504447); assay type: functional
Peroxisome proliferator-activated receptor gamma, sequence (P37231 whole entry): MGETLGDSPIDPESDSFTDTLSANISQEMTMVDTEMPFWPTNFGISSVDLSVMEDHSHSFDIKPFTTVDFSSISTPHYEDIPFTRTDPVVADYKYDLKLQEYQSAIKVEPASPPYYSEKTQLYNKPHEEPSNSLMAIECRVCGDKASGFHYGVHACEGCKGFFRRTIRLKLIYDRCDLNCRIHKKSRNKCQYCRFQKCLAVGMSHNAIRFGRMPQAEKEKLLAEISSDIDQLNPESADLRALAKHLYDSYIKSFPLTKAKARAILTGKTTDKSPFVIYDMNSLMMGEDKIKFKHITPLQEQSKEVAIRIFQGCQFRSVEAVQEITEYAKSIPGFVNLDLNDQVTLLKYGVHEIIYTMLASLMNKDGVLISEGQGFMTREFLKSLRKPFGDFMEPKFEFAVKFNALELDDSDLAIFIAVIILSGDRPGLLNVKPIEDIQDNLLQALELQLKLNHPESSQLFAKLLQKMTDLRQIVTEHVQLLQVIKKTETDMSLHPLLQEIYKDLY

[23] = target: Voltage-dependent T-type calcium channel subunit alpha-1H (Homo sapiens, UniProt O95180); assay: Cav3.2 T-type channel inhibitors, synthesized analogs, SAR follow-up, cell-based, synthetic library set 2, HEK293 HH8, Fluo-4 (AID 493023); assay type: functional
[24] = target: T7, Mu-type opioid receptor (Homo sapiens, UniProt P35372); assay: MOR agonists by imaging, SAR follow-up, image-based (AID 2352); assay type: functional
T7 sequence (P35372 whole entry): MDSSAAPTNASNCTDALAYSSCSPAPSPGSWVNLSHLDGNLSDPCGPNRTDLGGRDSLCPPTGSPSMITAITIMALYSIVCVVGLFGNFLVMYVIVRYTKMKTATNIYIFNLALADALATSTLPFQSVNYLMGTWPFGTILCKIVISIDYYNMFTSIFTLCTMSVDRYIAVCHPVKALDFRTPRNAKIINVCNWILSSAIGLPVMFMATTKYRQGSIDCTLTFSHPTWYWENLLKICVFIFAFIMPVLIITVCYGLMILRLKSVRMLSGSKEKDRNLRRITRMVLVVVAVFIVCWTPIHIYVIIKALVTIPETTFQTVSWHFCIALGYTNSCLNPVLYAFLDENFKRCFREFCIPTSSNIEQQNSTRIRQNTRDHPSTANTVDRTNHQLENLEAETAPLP

[25] = target: T8, Delta-type opioid receptor (Homo sapiens, UniProt P41143); assay: DOR agonists, SAR follow-up, image-based (AID 2370); assay type: functional
T8 sequence (P41143 whole entry): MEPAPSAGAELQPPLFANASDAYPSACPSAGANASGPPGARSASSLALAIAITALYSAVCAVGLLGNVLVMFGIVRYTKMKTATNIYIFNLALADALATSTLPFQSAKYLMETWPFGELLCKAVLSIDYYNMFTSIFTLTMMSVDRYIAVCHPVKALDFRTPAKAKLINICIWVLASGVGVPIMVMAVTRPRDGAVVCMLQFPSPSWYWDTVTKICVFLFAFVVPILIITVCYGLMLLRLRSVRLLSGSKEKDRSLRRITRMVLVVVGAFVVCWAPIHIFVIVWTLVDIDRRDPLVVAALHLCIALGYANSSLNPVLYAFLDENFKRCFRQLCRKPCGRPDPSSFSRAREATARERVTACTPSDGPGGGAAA

[26] = target: T9, Kappa-type opioid receptor (Homo sapiens, UniProt P41145); assay: KOR antagonists by imaging, SAR follow-up, image-based (AID 2348); assay type: functional
T9 sequence (P41145 whole entry): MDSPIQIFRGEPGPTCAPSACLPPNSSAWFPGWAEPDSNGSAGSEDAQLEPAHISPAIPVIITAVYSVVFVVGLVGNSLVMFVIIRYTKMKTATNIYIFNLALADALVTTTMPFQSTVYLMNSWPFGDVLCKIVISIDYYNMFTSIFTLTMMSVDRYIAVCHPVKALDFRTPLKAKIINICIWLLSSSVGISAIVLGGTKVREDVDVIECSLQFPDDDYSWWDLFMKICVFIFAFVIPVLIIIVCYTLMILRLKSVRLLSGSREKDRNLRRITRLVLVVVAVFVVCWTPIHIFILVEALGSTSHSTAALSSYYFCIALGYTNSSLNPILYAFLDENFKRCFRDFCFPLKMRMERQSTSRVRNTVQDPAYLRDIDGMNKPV

[27] = target: T7, Mu-type opioid receptor; assay: MOR antagonists, SAR follow-up, image-based (AID 2420); assay type: functional;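 also: compounds added before stimulation of receptor with agonist DAMGO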
[28] = target: T9, Kappa-type opioid receptor; assay: KOR agonist analogs, imaging readout, SAR follow-up, image-based (AID 2359); assay type: functional
[29] = target: T10, Tyrosine-protein phosphatase non-receptor type 7 (Homo sapiens, UniProt P35236); assay: SAR analysis of chemical inhibitors of HePTP using a Fluorescent assay - Set 2. [Related pubchem assays (depositor defined):AID1059, AID1077, AID1661, AID2085, AID521]; assay type: functional
T10 sequence (P35236 whole entry): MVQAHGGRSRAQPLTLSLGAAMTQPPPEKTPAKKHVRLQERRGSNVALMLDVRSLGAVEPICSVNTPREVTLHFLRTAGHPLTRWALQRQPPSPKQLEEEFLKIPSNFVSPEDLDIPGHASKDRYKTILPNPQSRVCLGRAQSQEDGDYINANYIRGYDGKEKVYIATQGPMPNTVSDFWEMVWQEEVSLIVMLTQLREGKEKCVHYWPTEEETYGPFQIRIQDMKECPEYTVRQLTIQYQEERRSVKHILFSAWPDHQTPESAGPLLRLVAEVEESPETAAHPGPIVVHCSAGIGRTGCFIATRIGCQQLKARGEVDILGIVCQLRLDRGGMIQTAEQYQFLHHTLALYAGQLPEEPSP

[30] = target: T5, Dual specificity protein phosphatase 3; assay: SAR VHR1 Fluorescent Assay for In Vitro dose response studies Set 2. [Related pubchem assays (depositor defined):AID1654, AID1661, AID1878]; assay type: functional
[31] = target: T8, Delta-type opioid receptor; assay: DOR antagonists, SAR follow-up, image-based (AID 2357); assay type: functional
[32] = target: T9, Kappa-type opioid receptor; assay: kappa opioid receptor blockers, cell-based, luminescence, beta-arrestin, SAR follow-up (AID 2285); assay type: functional

T1 sequence (P34972 whole entry): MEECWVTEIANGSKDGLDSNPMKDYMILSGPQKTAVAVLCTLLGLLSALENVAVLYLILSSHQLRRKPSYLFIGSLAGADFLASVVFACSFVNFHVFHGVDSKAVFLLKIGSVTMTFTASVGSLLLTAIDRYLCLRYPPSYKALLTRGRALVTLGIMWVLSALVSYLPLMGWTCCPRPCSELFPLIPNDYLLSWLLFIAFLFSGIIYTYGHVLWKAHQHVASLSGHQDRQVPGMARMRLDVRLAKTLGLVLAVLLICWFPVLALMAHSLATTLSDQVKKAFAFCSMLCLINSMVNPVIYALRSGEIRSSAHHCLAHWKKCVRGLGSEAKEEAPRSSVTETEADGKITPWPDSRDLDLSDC

## COc1ccc(S(=O)(=O)N2CCOCC2)cc1NC(=O)c1ccc(-n2nc(C)cc2C)cc1
[1]
  IC50: > 32 µM (inactive)
[2]
  EC50: 0.831 µM (active)
[3]
  EC50: > 32 µM (inactive)
[4]
  EC50: > 32 µM (inactive)
[5]
  IC50: 20.3 µM (inactive)
[6]
  EC50: > 32 µM (inactive)
[7]
  IC50: > 32 µM (inactive)

## Cc1ccc(OCc2ccc(Cl)cc2)c([N+](=O)[O-])n1
[8]
  EC50: > 50 µM (inactive)

## O=C(O)C1CCC(N2C(=O)c3c(Cl)c(Cl)c(Cl)c(Cl)c3C2=O)CC1 (configuration not stated)
[9]
  IC50: 5.1 µM (active)
[10]
  IC50: 3.6 µM (active)
[11]
  IC50: 113 µM (not active)

## COc1cccc(C2CN(c3ccc(F)cc3F)N=C2c2cccs2)c1OC (configuration not stated)
[12]
  EC50: 7.49 µM (active)
[13]
  EC50: 11.1 µM (not active)

## Cc1cccc(C)c1NC(=O)c1ccc(-c2cc(Cl)ccc2Cl)o1
[14]
  IC50: > 25 µM (inactive)
[15]
  IC50: 19.5 µM (inactive)
[16]
  IC50: 7.88 µM (active)

## CCNC(=O)CSc1nnc(-c2cccc(S(=O)(=O)N(CC)CC)c2)n1CCc1ccccc1
[17]
  IC50: > 100 µM (inactive)
[18]
  IC50: > 100 µM (not active)

## CC(C(=O)Oc1ccc2c(c1)OCO2)N1C(=O)c2ccccc2C1=O (configuration not stated)
[19]
  IC50: > 50 µM (inactive)

## c1ccc(Cc2nc(N3CCC(Cc4ccccc4)CC3)c3c4c(sc3n2)CCCC4)cc1
[20]
  IC50: > 55.7 µM (inactive)
[21]
  IC50: > 55.7 µM (inactive)

## O=C(Nc1ccccc1Cl)C(=O)c1cn(CC(=O)N2CCOCC2)c2ccccc12
[22]
  EC50: 2 µM (active)

## CC(C)(C)CCN1CCC[C@H](NC(=O)COc2ccccc2Cl)C1
[23]
  EC50: 10 µM (active)

## Cc1ccc(NC(=S)NC(NC(=O)OCc2ccccc2)C(Cl)(Cl)Cl)cc1 (configuration not stated)
[24]
  EC50: > 32 µM (inactive)
[25]
  EC50: > 32 µM (inactive)
[26]
  IC50: > 32 µM (inactive)
[27]
  IC50: > 32 µM (inactive)
[28]
  EC50: > 32 µM (inactive)
[29]
  IC50: > 100 µM (inactive)
[30]
  IC50: > 100 µM (inactive)
[31]
  IC50: > 32 µM (inactive)
[32]
  IC50: > 10 µM (inactive)
